Broadly, the LD50 is the dose at which mortality reaches 50%. Read a high LD50 as a less toxic substance.

Data set [1] in a line: Toxicity test, albino rat/peroral. Conditions: in vivo, po; albino rat; peroral; evaluation after 7 days. As to the method: Test animal: Albino rat (Rattus norvegicus)
To produce a suitable preparation of active compound, 3 parts by weight of active compound were mixed with 2.8 parts by weight of highly disperse silica and 4.2 parts by weight of talc. Suspensions, which contained, in 1 ml of liquid, the amount of active compound to be adminstered per 100 g of animal weight, were prepared from the above active-compound concentrate, with addition of a little powdered vegetable gum, by trituration with water. The dosage was measured out volumetrically after weighing the test animals. It was administered orally by means of a steel knob-ended probe. The results were in each case evaluated at the end of the above-mentioned interval of time, calculated from the administration of the active compound.
The LD50 values (dose of active compound which kills 50% of the treated animals) was determined from the mortality values of the dose which were varied in geometrical progression, in the usual manner.
The active compounds and LD50 values can be seen from Table 5 which follows.

Data set [2] has as its system fly larvae (Lucilia cuprina). In words: Test with parasitic fly larvae/Lucilia cuprina res. The data set is classed as in vivo. As to conditions: after 24 hours, resistant larvae, read-out: Degree of destruction in %; for mortality at 10 ppm: active compound concentration 10 ppm; for mortality at 30 ppm: active compound concentration 30 ppm; for mortality at 100 ppm: active compound concentration 100 ppm. On the procedure:
Test with parasitic fly larvae
35 parts by weight of ethylene polyglycol monomethyl ether
35 parts by weight of nonylphenol polyglycol ether
To produce a suitable preparation of active compound, 30 parts by weight of the active substance in question were mixed with the stated amount of solvent which contained the above-mentioned proportion of emulsifier and the concentrate thus obtained was diluted with water to the desired concentration.
About 20 fly larvae (Lucilia cuprina) were introduced into a test tube which contained approximately 2 ml of horse muscle. 0.5 ml of the preparation of active compound was applied to this horse meat. After 24 hours, the degree of destruction in % was determined. 100% means that all the larvae had been killed and 0% means that no larvae had been killed.

Data set [3] deals with vinegar flies (Drosophila melanogaster). In words: Drosophila test. In kind it is in vivo. As to conditions: 24 h, read-out: Degree of destruction in % after 1 day; for mortality at 0.01 %: active compound concentration 0.01 %. On the procedure: (§1) Solvent: 3 parts by weight of acetone
(§2) Emulsifier: 1 part by weight of alkylaryl polyglycol ether
To produce a suitable preparation of active compound, 1 part by weight of the active compound was mixed with the stated amount of solvent containing the stated amount of emulsifier, and the concentrate was diluted with water to the desired concentration.
1 ml of the preparation of the active compound was applied with a pipette to a filter paper disc of 7 cm diameter. The wet disc was placed over the orifice of a glass vessel containing 50 vinegar flies (Drosophila melanogaster) and covered with a glass plate.
After the specified periods of time, the destruction was determined in %. 100% means that all the flies were killed, and 0% means that no flies were killed.
The active compounds, the concentrations of the active compounds, the evaluation times and the degree of destruction can be seen from the following Table 1: […]

In data set [4] the test system is two-spotted spider mite (Tetranychus urticae). In words: Tetranychus test (resistant). The data set is classed as in vivo. As to conditions: 48 h, after 2 days, resistant mites, read-out: Degree of destruction in % after 2 days; for mortality at 0.01 %: active compound concentration 0.01 %; for mortality at 0.1 %: active compound concentration 0.1 %. As to the method: Tetranychus test (resistant)
as §1, §2
(§3) To produce a suitable preparation of active compound, 1 part by weight of the active compound was mixed with the stated amount of solvent containing the stated amount of emulsifier and the concentrate was diluted with water to the desired concentration.
These bean plants were heavily infested with the two-spotted spider mite (Tetranychus urticae) in all stages of development.
After the specified periods of time, the effectiveness of the preparation of active compound was determined by counting the dead mites. The degree of destruction thus obtained was expressed as a percentage: 100% means that all the spider mites were killed whereas 0% means that none of the spider mites were killed.
The active compounds, the concentrations of the active compounds, the evaluation times and the results can be seen from the following Table 3: […]

The subject of data set [5] is caterpillars of the diamond-back moth (Plutella maculipennis). Kind of data set: Plutella test. In kind it is in vivo. As to conditions: 72 h, read-out: Degree of destruction in % after 3 days; for mortality at 0.001 %: active compound concentration 0.001 %; for mortality at 0.01 %: active compound concentration 0.01 %. On the procedure: as §1, §2, §3
Cabbage leaves (Brassica oleracea) were sprayed with the preparation of the active compound until dew moist and were then infested with caterpillars of the diamond-back moth (Plutella maculipennis).
After the specified periods of time, the degree of destruction was determined as a percentage: 100% means that all the caterpillars were killed, whereas 0% means that none of the caterpillars were killed.
The active compounds, the concentrations of the active compounds, the evaluation times and the results can be seen from the following Table 2.

A further data set concerns insects and acarids. Conditions: prior-art compounds; cited from earlier work.
For the next data set, the system named is warm-blooded animals. Conditions: prior-art compounds; cited from earlier work.
The mark [6] stands for this setting: active compound concentration 0.1 %, after 1 day.
Setting [7] is: active compound concentration 0.1 %, after 3 days.

Read-outs that look alike come from different tables or passages of the source. Bounds are passed on as bounds.

In data set [1], `CCCSP(=S)(OCC)Oc1ccc(=O)[nH]n1` (stereo not shown) [Compound 1, O-ethyl-S-n-propyl-O-[pyridaz-(6)-on-(3)-yl]-thionothiolphosphoric acid ester] yielded an LD50 at 168 h of 100 to 250 mg/kg.

On to `CCCSP(=S)(OCC)Oc1ccc(=O)n(CCC#N)n1` (stereo not drawn) [Compound 2, O-ethyl-S-n-propyl-O-[1-β-cyanoethyl-pyridaz-(6)-on-(3)-yl]-thionothiolphosphoric acid ester], for which, in data set [2], the mortality at 10 ppm was 100%, the mortality at 30 ppm amounted to 100% and the mortality at 100 ppm was found to be 100%. The LD50 at 168 h in data set [1] was 250 to 500 mg/kg.

With `CCCSP(=S)(OCC)Oc1ccc(=O)n(C)n1` (stereo not shown) [Compound 3], the mortality at 0.01 % in data set [3] (after 1 day) is 100%. Besides, in data set [3] (setting [6]), the mortality at 0.1 % is 100%. Further, in data set [2], the mortality at 10 ppm was determined as 100%, the mortality at 30 ppm came out at 100% and the mortality at 100 ppm came out at 100%. Further, the LD50 at 168 h in data set [1] fell in the range of 100 to 250 mg/kg. In data set [4], the mortality at 0.01 % was determined as 70% and the mortality at 0.1 % was determined as 100%.

For the compound `C=CCn1nc(OP(=S)(OCC)SCCC)ccc1=O` (stereo not shown) [Compound 6], the mortality at 0.01 % in data set [3] (after 1 day) is 100%; in data set [4] it was 55%. In addition, the mortality at 0.1 % in data set [3] (setting [6]) and in data set [4] was 100% throughout. In addition, the LD50 at 168 h in data set [1] is approximately 500 mg/kg.

Turning to `C#CCn1nc(OP(=S)(OCC)SCCC)ccc1=O` (stereo not shown) [Compound 7], the mortality at 0.01 % worked out at 100% in data set [3] (after 1 day) and 45% in data set [4]. For the same compound, the mortality at 0.1 % in data set [3] (setting [6]) and in data set [4] was 100% each time. In data set [1], this compound came in with an LD50 at 168 h of approximately 250 mg/kg.

As to `CCCSP(=S)(OCC)Oc1ccc(=O)n(CCSCC)n1` (stereo not shown) [Compound 8], the mortality at 0.01 % in data set [3] (after 1 day) amounted to 100%; in data set [4], 80%. For the same compound, the mortality at 0.1 % in data set [3] (setting [6]) and in data set [4] was 100% each time. The LD50 at 168 h in data set [1] was in the range of 250 to 500 mg/kg.

Consider `CCCSP(=S)(OCC)Oc1ccc(=O)n(CC(=O)OCC)n1` (stereo not shown) [Compound 9], for which the LD50 at 168 h in data set [1] is approximately 500 mg/kg.

In turn, `CCCSP(=S)(OCC)Oc1ccc(=O)n(CCC(C)=O)n1` (stereo not shown) [Compound 10] came in with an LD50 at 168 h in data set [1] of 250 to 500 mg/kg.

Consider `CCCSP(=S)(OCC)Oc1ccc(=O)n(CCC(=O)OC)n1` (stereo not shown) [Compound 11], for which the LD50 at 168 h in data set [1] is approximately 250 mg/kg.

Turning to `CCCSP(=S)(OCC)Oc1ccc(=O)n(-c2ccccc2)n1` (stereo not shown) [Compound 13], the mortality at 0.01 % in data set [3] (after 1 day), in data set [5] (after 3 days) and in data set [4] was 100% throughout. Also, the mortality at 0.1 % in data set [3] (setting [6]), in data set [5] (setting [7]) and in data set [4] was 100% in each case. In data set [5] (after 3 days), the mortality at 0.001 % stood at 95%. The compound further displayed an LD50 at 168 h in data set [1] of 250 to 500 mg/kg.

For `CCCSP(=S)(OCC)Oc1ccc(=O)n(-c2cccc([N+](=O)[O-])c2)n1` (stereo not shown) [Compound 14], in data set [5] (after 3 days), the mortality at 0.001 % was 95% and the mortality at 0.01 % amounted to 100%. In addition, the mortality at 0.1 % in data set [5] (setting [7]) was found to be 100%. In addition, the median lethal dose (LD50) at 168 h in data set [1] was more than 1000 mg/kg.

For the compound `CCCSP(=S)(OCC)Oc1ccc(=O)n(-c2ccc(C)cc2)n1` (stereo not shown) [Compound 15], the mortality at 3 ppm in data set [2] (active compound concentration 3 ppm) was more than 50%. Moreover, in data set [2], the mortality at 10 ppm stood at 100%, the mortality at 30 ppm came to 100% and the mortality at 100 ppm was found to be 100%. The LD50 at 168 h in data set [1] is approximately 500 mg/kg.

The compound `CCCSP(=S)(OCC)Oc1ccc(=O)n(-c2ccc(Cl)cc2)n1` (stereo not shown) [Compound 16] came in with an LD50 at 168 h in data set [1] of more than 1000 mg/kg.

In data set [1], `CCCSP(=S)(OCC)Oc1ccc(=O)n(-c2cccc(Cl)c2)n1` (stereo not shown) [Compound 17] registered an LD50 at 168 h of more than 1000 mg/kg.

Compound `CCCSP(=S)(OCC)Oc1ccc(=O)n(C2CCS(=O)(=O)C2)n1` (stereo not shown) [Compound 18] came in with an LD50 at 168 h in data set [1] of approximately 500 mg/kg.

Consider `CCCSP(=S)(OCC)Oc1nn(CN2CCCC2)c(=O)c2ccccc12` (stereo not shown) [Compound 19], for which the mortality at 0.01 % in data set [3] (after 1 day) is 100%. For the same compound, the mortality at 0.1 % in data set [3] (setting [6]) stood at 100%. In addition, in data set [1], the LD50 at 168 h fell in the range of 100 to 250 mg/kg.

`CCCSP(=S)(OCC)Oc1nn(CN2CCCCC2)c(=O)c2ccccc12` (stereo not shown) [Compound 20] registered an LD50 at 168 h in data set [1] of 250 to 500 mg/kg. Besides, in data set [4], the mortality at 0.01 % is 80% and the mortality at 0.1 % is 100%.

With `CCCSP(=S)(OCC)Oc1n[nH]c(=O)c2ccccc12` (stereo not shown) [Compound 21], the median lethal dose (LD50) at 168 h in data set [1] was approximately 500 mg/kg.

Regarding `CCOP(=S)(OCC)Oc1ccc(=O)n(C)n1` [Compound C, O,O-diethyl-O-[1-methyl-pyridaz-(6)-on-(3)-yl]-thionophosphoric acid ester], in the data set on insects and acarids, the “insecticidal and acaricidal properties” value is “good insecticidal and acaricidal properties”. Further, in data set [1], the LD50 at 168 h lay within 5 to 10 mg/kg. The “toxicity to warm-blooded animals” value in the data set with warm-blooded animals is recorded as “high toxicity to warm-blooded animals”.

With `CCOP(=S)(OCC)Oc1ccc(=O)n(CCC#N)n1` [Compound D, O,O-diethyl-O-[1-β-cyanoethyl-pyridaz-(6)-on-(3)-yl]-thionophosphoric acid ester], the “insecticidal and acaricidal properties” value in the data set on insects and acarids is “good insecticidal and acaricidal properties”. Moreover, the median lethal dose (LD50) at 168 h in data set [1] lay within 10 to 25 mg/kg. In addition, the “toxicity to warm-blooded animals” value with warm-blooded animals is reported as “high toxicity to warm-blooded animals”.

As for `CCOC(=O)Cn1nc(OP(=S)(OCC)OCC)ccc1=O` [Compound E, O,O-diethyl-O-[1-ethoxycarbonylmethyl-pyridaz-(6)-on-(3)-yl]-thionophosphoric acid ester, reference compound], in the data set with insects and acarids, the “insecticidal and acaricidal properties” value is “good insecticidal and acaricidal properties”. In data set [2], the mortality at 10 ppm is more than 50% and the mortality at 100 ppm is 100%. Moreover, the “toxicity to warm-blooded animals” value with warm-blooded animals was “high toxicity to warm-blooded animals”.

As for `CCOP(=S)(OCC)Oc1ccc(=O)n(-c2ccc(C)cc2)n1` [Compound F, O,O-diethyl-[1-p-methylphenyl-pyridaz-(6)-on-(3)-yl]-thionophosphoric acid ester, reference compound], the “insecticidal and acaricidal properties” value with insects and acarids is “good insecticidal and acaricidal properties”. Further, in data set [1], the LD50 at 168 h fell in the range of 50 to 100 mg/kg. The “toxicity to warm-blooded animals” value in the data set on warm-blooded animals is “high toxicity to warm-blooded animals”. In data set [4], the mortality at 0.01 % stood at 0% and the mortality at 0.1 % stood at 40%.

In the case of `CCOP(=S)(OCC)Oc1ccc(=O)n(CCC(C)=O)n1` [G], in data set [5] (after 3 days), the mortality at 0.001 % was 0% and the mortality at 0.01 % amounted to 80%. In data set [5], the mortality at 0.1 % was found to be 100%. In data set [1], the LD50 at 168 h is 10 to 25 mg/kg.

With `CCOP(=S)(OCC)Oc1n[nH]c(=O)c2ccccc12` [known, reference compound], in data set [3] (after 1 day), the mortality at 0.01 % turned out to be 0%. Moreover, in data set [3], the mortality at 0.1 % stood at 100%.

The values above are taken from patent US4013657A, “O-ethyl-S-n-propyl-O-[pyridaz-(6)-on-(3)-yl]-thionothiolphosphoric acid esters” (priority 1973, dated 1977).
